In ChEMBL document CHEMBL4808242, “Discovery of GNE-502 as an orally bioavailable and potent degrader for estrogen receptor positive breast cancer” (Bioorg Med Chem Lett, 2021):
pIC50: −log10 of the molar value. Converted amounts (≈) assume the structure as drawn. The source made the active and inactive calls. The calls are words filed in the database; no cut-off is given here.

What was measured:
[1] = Oral bioavailability in rat; type: ADME, organism-based; conditions: in vivo
[2] = Kinetic solubility of compound at pH 7.4; type: physicochemical; conditions: buffer, read-out: Kinetic_solubility
[3] = Distribution coefficient, logD of the compound at pH 7.4; conditions: octanol/water
[4] = Clearance in rat at 1 mg/kg, iv; type: ADME, organism-based; conditions: in vivo
[5] = Volume of distribution at steady state in rat; type: ADME; conditions: in vivo, read-out: Vdss
[6] = Half life in rat; type: ADME; conditions: in vivo
[7] = Apparent permeability across basolateral to apical side in MDCK cells; type: ADME, cell-based, Canis lupus familiaris; conditions: dog
[8] = in vitro; conditions: dog, MDCK
[9] = target: T1, Estrogen receptor (Homo sapiens) (UniProt P03372); test: Induction of ERalpha degradation in human MCF7 cells assessed as maximum degradation by immunofluorescence assay relative to control; type: cell-based
T1 sequence (whole entry): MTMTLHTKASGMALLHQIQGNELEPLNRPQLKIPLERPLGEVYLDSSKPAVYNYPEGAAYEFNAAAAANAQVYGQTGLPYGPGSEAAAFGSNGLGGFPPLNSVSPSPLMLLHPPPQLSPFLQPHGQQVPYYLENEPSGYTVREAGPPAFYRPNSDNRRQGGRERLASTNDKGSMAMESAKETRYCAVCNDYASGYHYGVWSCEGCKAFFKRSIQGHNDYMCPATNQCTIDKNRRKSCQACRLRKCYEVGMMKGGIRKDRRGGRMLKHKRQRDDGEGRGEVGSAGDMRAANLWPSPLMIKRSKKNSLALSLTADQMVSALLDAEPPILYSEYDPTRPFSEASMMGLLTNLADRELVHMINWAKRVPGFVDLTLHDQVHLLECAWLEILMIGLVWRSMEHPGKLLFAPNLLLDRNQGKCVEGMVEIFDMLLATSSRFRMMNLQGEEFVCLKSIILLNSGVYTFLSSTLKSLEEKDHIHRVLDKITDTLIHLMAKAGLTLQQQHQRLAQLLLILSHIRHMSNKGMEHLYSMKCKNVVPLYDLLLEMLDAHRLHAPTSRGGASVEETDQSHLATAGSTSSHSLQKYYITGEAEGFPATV

[10] = target: T2, Estrogen receptor (Homo sapiens, UniProt P03372); test: Induction of ERalpha degradation in human MCF7 cells by immunofluorescence assay; type: cell-based
T2 sequence (P03372 whole entry): T1 sequence (whole entry)

[11] = Protein binding in human plasma assessed as unbound fraction; type: ADME, cell-free
[12] = target: T2, Estrogen receptor; test: Displacement of fluorescein PGC1alpha from recombinant ERalpha (unknown origin)
[13] = test system: MCF7; test: Antiproliferation activity against human MCF7 cells assessed as reduction in cell viability measured by CellTiter-Glo luminescent assay; type: functional, cell-based
[14] = AUC in mouse at 10 mg/kg, po; type: ADME, organism-based; parameters: dose 10 mg/kg; conditions: in vivo
[15] = test system: MCF7; test: Antitumor activity against human MCF7 cells xenografted in mouse assessed as tumor growth inhibition at 100 mg/kg, po measured after 4 weeks; type: functional, organism-based
[16] = test system: MCF7; test: Antitumor activity against human MCF7 cells xenografted in po dosed mouse assessed as tumor growth inhibition measured after 4 weeks; type: functional, organism-based; conditions: dose 10-100 mg/kg
[17] = Toxicity in mouse xenografted with human MCF7 cells assessed as body weight loss at 1 to 100 mg/kg, po administered for 4 weeks; type: organism-based; conditions: in vivo, 672 h, dose 1-100 mg/kg
[18] = test system: Estrogen receptor (Homo sapiens), P03372 [Y537S]; test: Induction of ERalpha Y537S mutant degradation expressed in human MCF7 cells assessed as maximum degradation by immunofluorescence assay relative to control; type: cell-based
Chain of Estrogen receptor (Homo sapiens), P03372 [Y537S] (P03372 whole entry Y537S): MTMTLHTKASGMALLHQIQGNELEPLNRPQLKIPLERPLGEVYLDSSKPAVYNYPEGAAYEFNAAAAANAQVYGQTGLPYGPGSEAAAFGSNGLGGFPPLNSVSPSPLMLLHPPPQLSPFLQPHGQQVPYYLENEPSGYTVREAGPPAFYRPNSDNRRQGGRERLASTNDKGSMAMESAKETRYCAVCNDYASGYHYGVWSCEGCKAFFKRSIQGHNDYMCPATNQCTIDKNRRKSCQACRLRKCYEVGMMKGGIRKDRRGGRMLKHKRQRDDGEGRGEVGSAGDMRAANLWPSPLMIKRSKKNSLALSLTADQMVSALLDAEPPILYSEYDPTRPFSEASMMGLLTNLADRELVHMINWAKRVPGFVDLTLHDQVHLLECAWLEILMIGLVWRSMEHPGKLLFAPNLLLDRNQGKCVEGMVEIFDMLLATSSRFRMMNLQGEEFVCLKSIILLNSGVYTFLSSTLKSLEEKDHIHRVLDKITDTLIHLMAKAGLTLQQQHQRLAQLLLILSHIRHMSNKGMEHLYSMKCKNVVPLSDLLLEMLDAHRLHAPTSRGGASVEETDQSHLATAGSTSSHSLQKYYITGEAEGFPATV

[19] = target: Estrogen receptor (Homo sapiens, UniProt P03372, Y537S); test: Induction of ERalpha Y537S mutant degradation expressed in human MCF7 cells by immunofluorescence assay; type: cell-based
Chain of Estrogen receptor (Homo sapiens, UniProt P03372, Y537S) (P03372 whole entry Y537S): as above

[20] = AUC in mouse at 100 mg/kg, po; type: ADME, organism-based; parameters: dose 100 mg/kg; conditions: in vivo
[21] = test system: MCF7; test: Antitumor activity against human MCF7 cells xenografted in mouse assessed as tumor growth inhibition at 60 mg/kg, po QD for 4 weeks; type: functional, organism-based

solubility kinetic [2] [µM]	logD [3]	%max [9] [%]	DC50 [10] [nM]	SMILES	other results
95 (≈ 49.2 µg/mL)	3.2	94		C[C@@H]1Cc2c([nH]c3ccccc23)[C@@H](c2c(F)cc(OCCN3CC(CF)C3)cc2F)N1C(=O)C(C)(C)F	bioavailability [1]: 33%; clearance [4]: 120 mL/min/kg; Vd [5]: 32 L/kg; half-life [6]: 3.1 h; Papp B→A [7]: 1 ×10⁻⁶ cm/s; Papp A→B [8]: 1 ×10⁻⁶ cm/s
115 (≈ 59.5 µg/mL)	2.5	98	0.34	C[C@@H]1Cc2c([nH]c3ccccc23)[C@@H](c2c(F)cc(OCCN3CC(CF)C3)cc2F)N1C(=O)[C@@H](C)CF	
13 (≈ 6.7 µg/mL)	4.1	95	0.32	C[C@@H]1Cc2c([nH]c3ccccc23)[C@@H](c2c(F)cc(OC3CN(CCCF)C3)cc2F)N1C(=O)C1(F)CC1	
102 (≈ 52.8 µg/mL)	2.5	96	0.4	C[C@H](CF)C(=O)N1[C@H](c2c(F)cc(OCCN3CC(CF)C3)cc2F)c2[nH]c3ccccc3c2C[C@H]1C	
111 (≈ 56.8 µg/mL)	3.1	95	5	C[C@@H]1Cc2c([nH]c3ccccc23)[C@@H](c2c(F)cc(OCCN3CC(CF)C3)cc2F)N1C(=O)CC1CC1	
96 (≈ 49.2 µg/mL)	-0.2		> 10	C[C@@H]1Cc2c([nH]c3ccccc23)[C@@H](c2c(F)cc(OCCN3CC(CF)C3)cc2F)N1C(=O)C1CNC1	
53 (≈ 25 µg/mL)	2.5	91		CC(=O)N1[C@H](c2c(F)cc(OCCN3CC(CF)C3)cc2F)c2[nH]c3ccccc3c2C[C@H]1C	
117 (≈ 60.1 µg/mL)	1.8	92	4	C[C@@H]1Cc2c([nH]c3ccccc23)[C@@H](c2c(F)cc(OCCN3CC(CF)C3)cc2F)N1C(=O)C1COC1	
< 1	4.3	96	1.2	C[C@@H]1Cc2c([nH]c3ccccc23)[C@@H](c2c(F)cc(OC3CN(CCCF)C3)cc2F)N1C(=O)C1(F)CCC1	
< 1	4	100	0.42	C[C@@H]1Cc2c([nH]c3ccccc23)[C@@H](c2c(F)cc(OC3CN(CCCF)C3)cc2F)N1C(=O)C(C)(C)F	
< 1		100		C[C@@H]1Cc2c([nH]c3ccccc23)[C@@H](c2c(F)cc(OC3CN(CCCF)C3)cc2F)N1CC(C)(C)F	fraction unbound [11]: < 0.001; Papp B→A [7]: 0.2 ×10⁻⁶ cm/s; Papp A→B [8]: 0.4 ×10⁻⁶ cm/s
181 (≈ 90.1 µg/mL)	2.1	89	3	C[C@@H]1Cc2c([nH]c3ccccc23)[C@@H](c2c(F)cc(OCCN3CC(CF)C3)cc2F)N1C(=O)C1CC1	
30 (≈ 15.6 µg/mL)		95	0.15	C[C@@H]1Cc2c([nH]c3ccccc23)[C@@H](c2c(F)cc(OCCN3CC(CF)C3)cc2F)N1C(=O)C(C)(F)F	
118 (≈ 55.6 µg/mL)	2.2	93	0.18	C[C@@H]1Cc2c([nH]c3ccccc23)[C@@H](c2ccc(OCCN3CC(CF)C3)cc2)N1S(C)(=O)=O	pIC50 [12]: 7.96; bioavailability [1]: 32%; clearance [4]: 7 mL/min/kg; Vd [5]: 7.7 L/kg; pIC50 [13]: 9.30; half-life [6]: 13 h; AUC [14]: 1.8 µM·h; Activity [15]: Active; Activity [16]: Dose-Dependent Effect; Papp B→A [7]: 6 ×10⁻⁶ cm/s; Activity [17]: Non-Toxic; %max [18]: 82%; Papp A→B [8]: 5 ×10⁻⁶ cm/s; DC50 [19]: 1.2 nM; AUC [20]: 28.9 µM·h
135 (≈ 66.1 µg/mL)	2.5	93	0.19	C[C@@H]1Cc2c([nH]c3ccccc23)[C@@H](c2ccc(OCCN3CC(CF)C3)cc2F)N1S(C)(=O)=O	pIC50 [12]: 7.77; bioavailability [1]: 48%; clearance [4]: 10.2 mL/min/kg; Vd [5]: 9.6 L/kg; pIC50 [13]: 9.40; half-life [6]: 11 h; Papp B→A [7]: 5 ×10⁻⁶ cm/s; Papp A→B [8]: 4 ×10⁻⁶ cm/s
156 (≈ 80.4 µg/mL)	1.8	91	4	CC(CO)C(=O)N1[C@H](c2c(F)cc(OCCN3CC(CF)C3)cc2F)c2[nH]c3ccccc3c2C[C@H]1C (some centres undefined)	
92 (≈ 47.3 µg/mL)	3.3	90	0.49	C[C@@H]1Cc2c([nH]c3ccccc23)[C@@H](c2c(F)cc(OCCN3CC(CF)C3)cc2F)N1C(=O)C(C)(C)C	
				CC/C(=C(\c1ccccc1)c1ccc(OCCN(C)C)cc1)c1ccccc1	Activity [21]: Active
135 (≈ 67.4 µg/mL)		95	0.11	CC(C)C(=O)N1[C@H](c2c(F)cc(OCCN3CC(CF)C3)cc2F)c2[nH]c3ccccc3c2C[C@H]1C	
113 (≈ 57.4 µg/mL)	2.3	93		C[C@@H]1Cc2c([nH]c3ccccc23)[C@@H](c2c(F)cc(OCCN3CC(CF)C3)cc2F)N1S(C)(=O)=O	bioavailability [1]: 47%; clearance [4]: 27.5 mL/min/kg; Vd [5]: 17.3 L/kg; pIC50 [13]: 9.30; half-life [6]: 7 h; Papp B→A [7]: 4 ×10⁻⁶ cm/s; %max [18]: 86%; Papp A→B [8]: 4 ×10⁻⁶ cm/s
